Values of other authors in publication PMC8153205 (Journal of Inflammation Research, 2021).

Test system: rheumatoid arthritis
Details: RA clinical trials

In the case of `NC(=O)c1cnc2[nH]ccc2c1N[C@@H]1[C@@H]2CC3C[C@H]1C[C@@](O)(C3)C2` [peficitinib], the “SUCRA for serious adverse events (safety)” value is given as 0.66.
